Bounds are passed on as bounds.

The first assay concerns Escherichia coli (ATCC25922) or Staphylococcus aureus (ATCC25923). The assay can be described thus: Antibacterial MIC, microdilution method in Mueller-Hinton medium. In kind it is cell-based. Particulars: Escherichia coli, 18 h, MIC in E. coli or S. aureus; two-fold serial dilutions 64 to 0.5 μg/ml in duplicate; 18 hours of incubation at 35° C.; read-out: Potency (MIC). How it is done:
The antibacterial activity of the Formula I compounds was evaluated against standard bacterial strains by determining the minimal inhibitory concentration (MIC) to block growth. Each drug was assayed by the microdilution method in Mueller-Hinton medium, as recommended by the National Committee for Clinical Laboratory Standards. Approved Standard M7-A5: Methods for Dilution Antimicrobial Susceptibility Tests for Bacteria That Grow Aerobically 5th Ed. (National Committee for Clinical Laboratory Standards, Wayne, Pa., 2000). The tested bacterial strains included Escherichia coli (American Type Collection ATCC25922), Staphylococcus aureus (ATCC25923), and Pseudomonas aeruginosa (ATCC27853). Two-fold serial dilutions of each compound ranging from 64 to 0.5 μg/ml were tested in duplicate. The MIC was determined as the lowest concentration of each compound that prevented bacterial growth after 18 hours of incubation at 35° C. […] The mass of each compound in the Table was confirmed by LC-MS.
Regarding `Cl.O=C(Nc1ccc(Nc2cc(N3CCCCC3)cc(N3CCCCC3)c2)cc1)c1ccc2ccccc2c1O` [1-Hydroxy-naphthalene-2-cxarboxylicacid {4-[3-((3R,5S)-3,5-diamino-piperidin-1-yl)-5-((3S,5R)-3,5-diamino-piperidin-1-yl)-phenylamino]-phenyl}-amide], the minimum inhibitory concentration (MIC) (usually the lowest concentration found to suppress growth) is < 16 µg/mL. Still for that read-out and setting: the same measure for `CC(=O)c1ccc(Nc2nc(N3CCCCC3)nc(N3CCCCC3)n2)cc1.Cl` [1-{4-[4-((3R,4S)-3-Aminomethyl-4-hydroxy-piperidin-1-yl)-6-((3R,5S)-3,5-diamino-piperidin-1-yl)-[1,3,5]triazin-2-ylammino]-phenyl}-ethanone]: > 64 µg/mL.

For `CC(=O)c1ccc(Nc2nc(N3C[C@H](N)C[C@H](N)C3)nc(N3C[C@H](O)C[C@@H](O)C3)n2)cc1` [1-{4-[4-((3R,5S)-3,5-Diamino-piperidin-1-yl)-6-((3R,5R)-3,5-dihydroxy-piperidin-1-yl)-[1,3,5]triazin-2-ylamino]-phenyl}-ethanone], the MIC is > 64 µg/mL. Still for that read-out and setting: next, `CC(=O)c1ccc(Nc2nc(N3C[C@H](N)C[C@H](N)C3)nc(N3C[C@@H](N)C[C@@H](O)C3)n2)cc1` [1-{4-[4-((3S,5R)-3-Amino-5-hydroxy-piperidin-1-yl)-6-((3R,5S)-3,5-diamino-piperidin-1-yl)-[1,3,5]triazin-2-ylamino]-phenyl}-ethanone]: > 64 µg/mL; `COC(=O)c1c(N2C[C@H](N)C[C@H](N)C2)nc2ccccc2c1N1C[C@H](N)C[C@H](N)C1.Cl` [2,4-Bis-((3R,5S)-3,5-diamino-piperidin-1-yl)-quinoline-3-carboxylic acidmethylester]: > 64 µg/mL; `Cl.N[C@@H]1C[C@@H](N)CN(c2nc(N3CCC4CCCCC4C3)nc(N3C[C@H](N)C[C@H](N)C3)n2)C1` (stereo partly drawn) [2,4-Biss-((3R,5S)-3,5-diamino-piperidin-1-yl)-6-(4-p-tolyl-piperazin-1-yl)-[1,3,5]triazine]: > 64 µg/mL. Same read-out and setting: the same measure for `COC(=O)c1ccccc1Nc1nc(N2C[C@H](N)C[C@H](N)C2)nc(N2C[C@H](N)C[C@H](N)C2)n1` [2-[4,6-Bis-((3R,5S)-3,5-diamino-piperidin-1-yl)-[1,3,5]triazin-2-ylamino]-benzoic acid methyl ester]: > 64 µg/mL; for `Cl.c1ccc(N2CCN(c3nc(N4CCCCC4)nc(N4CCCCC4)n3)CC2)nc1` [2-[4-(4-Fluoro-phenyl)-piperiazin-1-yl]-4,6-Bis-((3R,5S)-3,5-diamino-piperidin-1-yl)-[1,3,5]triazine]: > 64 µg/mL.

The same assay, now with this note: Escherichia coli, 18 h, read-out: Potency (MIC).
In the case of `N[C@@H]1C[C@H](N)CN(c2ncnc(Nc3ccc(NC(=O)c4ccc5ccccc5c4O)cc3)n2)C1` [1-Hydroxy-naphthalene-2-carboxylicacid {4-[4-((3S,5R)-3,5-diamino-piperidin-1-yl)-[1,3,5]triazin-2-ylamino]-phenyl}-amide], the MIC was < 16 µg/mL.

On to `N[C@@H]1C[C@H](N)CN(c2nc3nc(Nc4ccc(NC(=O)c5ccc6ccccc6c5O)cc4)nc(N4C[C@H](N)C[C@H](N)C4)c3[nH]2)C1` [1-Hydroxy-naphthalene-2-carboxylicacid {4-[6-((3R,5S)-3,5-diamino-piperidin-1-yl)-8-((3S,5R)-3,5-diamino-piperidin-1-yl)-7H-purin-2-ylamino]-phenyl}-amide], for which the MIC is < 16 µg/mL. On the same count and under the same terms, the same measure for `CC(=O)c1ccc(Nc2nc(N3C[C@H](N)C[C@H](N)C3)nc(N3CC[C@H](O)[C@@H]3CN)n2)cc1` [1-{4-[4-((2S,3S)-2-Aminomethyl-3-hydroxy-pyrrolidin-1-yl)-6-((3R,5S)-3,5-diamino-piperidin-1-yl)-[1,3,5]triazin-2-ylamino]-phenyl}-ethanone]: > 64 µg/mL; for `CC(=O)c1ccc(Nc2nc(N3C[C@H](N)C[C@H](N)C3)nc(N3C[C@H](O)C[C@H]3CN)n2)cc1` [1-{4-[4-((2S,4R)-2-Aminomethyl-4-hydroxy-pyrrolidin-1-yl)-6-((3R,5S)-3,5-diamino-piperidin-1-yl)-[1,3,5]triazin-2-ylamino]-phenyl}-ethanone]: > 64 µg/mL. `CC(=O)c1ccc(Nc2nc(N3C[C@H](N)C[C@H](N)C3)nc(N3C[C@@H](N)C[C@H]3CN)n2)cc1` [1-{4-[4-((2S,4S)-4-Amino-2-aminomethyl-pyrrolidin-1-yl)-6-((3R,5S)-3,5-diamino-piperidin-1-yl)-[1,3,5]triazin-2-ylamino]-phenyl}-ethanone]: the minimum inhibitory concentration (MIC) was > 64 µg/mL.

For the compound `CC(=O)c1ccc(Nc2nc(N3C[C@H](N)C[C@H](N)C3)nc(N3C[C@@H](N)C[C@H]3CO)n2)cc1` [1-{4-[4-((2S,4S)-4-Amino-2-hydroxymethyl-pyrrolidin-1-yl)-6-((3R,5S)-3,5-diamino-piperidin-1-yl)-[1,3,5]triazin-2-ylamino]-phenyl}-ethanone], the minimum inhibitory concentration (MIC) is > 64 µg/mL.

Take `CC(=O)c1ccc(Nc2nc(N3C[C@H](N)C[C@H](N)C3)nc(N3C[C@@H](N)[C@@H](N)C3)n2)cc1` [1-{4-[4-((3R,5S)-3,5-Diamino-piperidin-1-yl)-6-((3R,4S)-3,4-diamino-pyrrolidin-1-yl)-[1,3,5]triazin-2-ylamino]-phenyl}-ethanone]: the minimal inhibitory concentration (MIC) is > 64 µg/mL. For the compound `CC(=O)c1ccc(Nc2nc(N3C[C@H](N)C[C@H](N)C3)nc(N3C[C@@H](O)[C@@H](O)C3)n2)cc1` [1-{4-[4-((3R,5S)-3,5-Diamino-piperidin-1-yl)-6-((3R,4S)-3,4-dihydroxy-pyrrolidin-1-yl)-[1,3,5]triazin-2-ylamino]-phenyl}-ethanone], the MIC is > 64 µg/mL.

Regarding `CC(=O)c1ccc(Nc2nc(N3C[C@H](N)C[C@H](N)C3)nc(N3CCC[C@@H](O)C3)n2)cc1` [1-{4-[4-((3R,5S)-3,5-Diamino-piperidin-1-yl)-6-((R)-3-hydroxy-piperidin-1-yl)-[1,3,5]triazin-2-ylamino]-phenyl}-ethanone], the minimum inhibitory concentration (MIC) was > 64 µg/mL. Still for that read-out and setting: next, `COc1nc(Nc2ccc(C(C)=O)cc2)nc(N2C[C@H](N)C[C@H](N)C2)n1` [1-{4-[4-((3R,5S)-3,5-Diamino-piperidin-1-yl)-6-methoxy-[1,3,5]triazin-2-ylamino]-phenyl}-ethanone]: > 64 µg/mL; `CC(=O)c1ccc(Nc2nc(N(CCN)CCN)nc(N3C[C@H](N)C[C@H](N)C3)n2)cc1` [1-{4-[4-[Bis-(2-amino-ethyl)-amino]-6-((3R,5S)-3,5-diamino-piperidin-1-yl)-[1,3,5]triazin-2-ylamino]-phenyl}-ethanone]: < 64 µg/mL; `N[C@@H]1C[C@H](N)CN(c2nc(NNC(=O)c3ccccc3O)nc(N3C[C@H](N)C[C@H](N)C3)n2)C1` [2-Hydroxy-benzoicacid N′-[4-((3R,5S)-3,5-diamino-piperidin-1-yl)-6-((3S,5R)-3,5-diamino-piperidin-1-yl)-[1,3,5]triazin-2-yl]-hydrazide]: < 64 µg/mL.

The same assay, now with this note: MIC in E. coli or S. aureus; two-fold serial dilutions 64 to 0.5 μg/ml in duplicate; 18 hours of incubation at 35° C.
Take `CC(=O)c1ccc(Nc2nc(N3C[C@H](N)C[C@H](N)C3)nc(N3C[C@H](CN)C[C@H](CN)C3)n2)cc1` [1-{4-[4-((3S,5R)-3,5-Bis-(aminomethyl)-piperidin-1-tl)-6-((3R,5S)-3,5-diamino-piperidin-1-l)-[1,3,5]triazin-2-ylamino]-phenyl}-ethanone]: the “Potency (MIC)” value is “− (− means MIC>64 μg/ml in E. coli or S. aureus)”.

Source of the values: patent US7223759B2, “Antibacterial 3,5-diaminopiperidine-substituted aromatic and heteroaromatic compounds” (Anadys Pharmaceuticals, Inc., priority 2003, dated 2007).
